Data from US12084467B2, “Therapeutic compounds for HIV virus infection” (Gilead Sciences, Inc., priority 2021, dated 2024).
Values after ≈ are worked out from the molar mass of the structure shown.

Experiments:
[1] = Kinetic solubility analysis (CLND: total chemiluminescent nitrogen determination); conditions: 1.0% DMSO, 24-hour incubation at ambient temperature, maximum theoretical concentration 100 μM; for pH 2 solubility: 0.1N HCl; for pH 7 solubility: 1×PBS buffer (pH 7.4)
physchem = conditions: 25 °C, fassif, thermodynamic from solid
[2] = Oral bioavailability PK in dog; format: in vivo; conditions: Beagle dog, oral gavage, solution vehicle 5% ethanol, 20% propylene glycol, 75% water; based on observed exposure of Intermediate 5 in plasma
Description: Oral dose (suspension and solution vehicle) of the compound being tested was administered via gavage in rat (Sprague Dawley) and dog (Beagle). Serial blood samples were collected via jugular vein into pre-chilled K2EDTA with 2 mM dichlorvos (final concentration) for up to 168 h. Whole blood was processed into plasma by centrifuge (3000 rpm for 10 minutes at 5C) within 30 minutes of collection.
Plasma samples were analyzed by direct protein precipitation with acetonitrile and further dilution with water before injecting onto Sciex API 5500 LC/MS/MS system for analysis.
AUC was calculated as Area under the plasma concentration vs. time curve from 0 h to infinity.
The solution vehicles used were 1) 5% ethanol, 20% propylene glycol, and 75% water and 2) 30% 10 mM HCl, 5% ethanol, 45% polyethylene glycol 300, and 20% propylene glycol.

[3] = Solubility in simulated intestinal fluids (FaSSIF / FeSSIF); conditions: 25 °C, thermodynamic from solid
[4] = fasted state simulated intestinal fluid (FaSSIF), fassif
[5] = fed state simulated intestinal fluid (FeSSIF), fessif

Structure (SMILES) | pH 2 solubility [1] | pH 7 solubility [1] | solubility (physchem) | Dog F % (solution) [2] | solubility ([3]; fassif) | solubility [3, 4] | solubility [3, 5]
CC(C)(C#Cc1ccc(-c2ccc(Cl)c3c(N(C(=O)[C@H]4C[C@H](C(=O)O)C4)S(C)(=O)=O)nn(CC(F)(F)F)c23)c([C@H](Cc2cc(F)cc(F)c2)NC(=O)Cn2nc(C(F)(F)F)c3c2C(F)(F)[C@@H]2C[C@H]32)n1)S(C)(=O)=O [Compound 13, (1S,3r)-3-((4-chloro-7-(2-((S)-1-(2-((3bS,4aR)-5,5-difluoro-3-(trifluoromethyl)-3b,4,4a,5-tetrahydro-1H-cyclopropa[3,4]cyclopenta[1,2-c]pyrazol-1-yl)acetamido)-2-(3,5-difluorophenyl)ethyl)-6-(3-methyl-3-(methylsulfonyl)but-1-yn-1-yl)pyridin-3-yl)-1-(2,2,2-trifluoroethyl)-1H-indazol-3-yl)(methylsulfonyl)carbamoyl)cyclobutane-1-carboxylic acid] | 1 μM | 15 μM | 9 µg/mL (≈ 8.22 µM) |  |  |  | 
CC(C)(C#Cc1ccc(-c2ccc(Cl)c3c(N(C(=O)[C@H]4C[C@H]4C(=O)OCOP(=O)(O)O)S(C)(=O)=O)nn(CC(F)(F)F)c23)c([C@H](Cc2cc(F)cc(F)c2)NC(=O)Cn2nc(C(F)(F)F)c3c2C(F)(F)[C@@H]2C[C@H]32)n1)S(C)(=O)=O [Compound 12, (phosphonooxy)methyl (1R,2S)-2-((4-chloro-7-(2-((S)-1-(2-((3bS,4aR)-5,5-difluoro-3-(trifluoromethyl)-3b,4,4a,5-tetrahydro-1H-cyclopropa[3,4]cyclopenta[1,2-c]pyrazol-1-yl)acetamido)-2-(3,5-difluorophenyl)ethyl)-6-(3-methyl-3-(methylsulfonyl)but-1-yn-1-yl)pyridin-3-yl)-1-(2,2,2-trifluoroethyl)-1H-indazol-3-yl)(methylsulfonyl)carbamoyl)cyclopropane-1-carboxylate] | 1 μM | 71 μM | 2100 µg/mL (≈ 1760 µM) |  |  |  | 
CC(C)(C#Cc1ccc(-c2ccc(Cl)c3c(N(C(=O)[C@H]4C[C@@H](C(=O)O)C4)S(C)(=O)=O)nn(CC(F)(F)F)c23)c([C@H](Cc2cc(F)cc(F)c2)NC(=O)Cn2nc(C(F)(F)F)c3c2C(F)(F)[C@@H]2C[C@H]32)n1)S(C)(=O)=O [Compound 14, ((1R,3s)-3-((4-chloro-7-(2-((S)-1-(2-((3bS,4aR)-5,5-difluoro-3-(trifluoromethyl)-3b,4,4a,5-tetrahydro-1H-cyclopropa[3,4]cyclopenta[1,2-c]pyrazol-1-yl)acetamido)-2-(3,5-difluorophenyl)ethyl)-6-(3-methyl-3-(methylsulfonyl)but-1-yn-1-yl)pyridin-3-yl)-1-(2,2,2-trifluoroethyl)-1H-indazol-3-yl)(methylsulfonyl)carbamoyl)cyclobutane-1-carboxylic acid)] | 1 μM | 8 μM | 9 µg/mL (≈ 8.22 µM) |  |  |  | 
CC(C)(C#Cc1ccc(-c2ccc(Cl)c3c(NS(C)(=O)=O)nn(CC(F)(F)F)c23)c([C@H](Cc2cc(F)cc(F)c2)NC(=O)Cn2nc(C(F)(F)F)c3c2C(F)(F)[C@@H]2C[C@H]32)n1)S(C)(=O)=O [Intermediate 5, N—((S)-1-(3-(4-chloro-3-(methylsulfonamido)-1-(2,2,2-trifluoroethyl)-1H-indazol-7-yl)-6-(3-methyl-3-(methylsulfonyl)but-1-yn-1-yl)pyridin-2-yl)-2-(3,5-difluorophenyl)ethyl)-2-((3bS,4aR)-5,5-difluoro-3-(trifluoromethyl)-3b,4,4a,5-tetrahydro-1H-cyclopropa[3,4]cyclopenta[1,2-c]pyrazol-1-yl)acetamide, reference compound] | 0.11 μM | 0.32 μM |  | 16% |  |  | 
CC(C)(C#Cc1ccc(-c2ccc(Cl)c3c(N(C(=O)N4CCC[C@H]4C(=O)OCOP(=O)(O)O)S(C)(=O)=O)nn(CC(F)(F)F)c23)c([C@H](Cc2cc(F)cc(F)c2)NC(=O)Cn2nc(C(F)(F)F)c3c2C(F)(F)[C@@H]2C[C@H]32)n1)S(C)(=O)=O [Compound 27, (phosphonooxy)methyl ((4-chloro-7-(2-((S)-1-(2-((3bS,4aR)-5,5-difluoro-3-(trifluoromethyl)-3b,4,4a,5-tetrahydro-1H-cyclopropa[3,4]cyclopenta[1,2-c]pyrazol-1-yl)acetamido)-2-(3,5-difluorophenyl)ethyl)-6-(3-methyl-3-(methylsulfonyl)but-1-yn-1-yl)pyridin-3-yl)-1-(2,2,2-trifluoroethyl)-1H-indazol-3-yl)(methylsulfonyl)carbamoyl)-L-prolinate] | 2 μM | 68 μM | 512 µg/mL (≈ 420 µM) |  |  |  | 
CC(C)(C#Cc1ccc(-c2ccc(Cl)c3c(N(C(=O)N4CCC[C@H]4CN(CC(=O)O)C(=O)OCOP(=O)(O)O)S(C)(=O)=O)nn(CC(F)(F)F)c23)c([C@H](Cc2cc(F)cc(F)c2)NC(=O)Cn2nc(C(F)(F)F)c3c2C(F)(F)[C@@H]2C[C@H]32)n1)S(C)(=O)=O [Compound 33, N—(((S)-1-((4-chloro-7-(2-((S)-1-(2-((3bS,4aR)-5,5-difluoro-3-(trifluoromethyl)-3b,4,4a,5-tetrahydro-1H-cyclopropa[3,4]cyclopenta[1,2-c]pyrazol-1-yl)acetamido)-2-(3,5-difluorophenyl)ethyl)-6-(3-methyl-3-(methylsulfonyl)but-1-yn-1-yl)pyridin-3-yl)-1-(2,2,2-trifluoroethyl)-1H-indazol-3-yl)(methylsulfonyl)carbamoyl)pyrrolidin-2-yl)methyl)-N-(((phosphonooxy)methoxy)carbonyl)glycine] | 1 μM | 100 μM |  |  | 5020 µg/mL (≈ 3840 µM) |  | 
CC(C)(C#Cc1ccc(-c2ccc(Cl)c3c(N(C(=O)[C@@H]4C[C@H](C(=O)O)C[C@H](C(=O)O)C4)S(C)(=O)=O)nn(CC(F)(F)F)c23)c([C@H](Cc2cc(F)cc(F)c2)NC(=O)Cn2nc(C(F)(F)F)c3c2C(F)(F)[C@@H]2C[C@H]32)n1)S(C)(=O)=O [Compound 15, (1R,3S,5r)-5-((4-chloro-7-(2-((S)-1-(2-((3bS,4aR)-5,5-difluoro-3-(trifluoromethyl)-3b,4,4a,5-tetrahydro-1H-cyclopropa[3,4]cyclopenta[1,2-c]pyrazol-1-yl)acetamido)-2-(3,5-difluorophenyl)ethyl)-6-(3-methyl-3-(methylsulfonyl)but-1-yn-1-yl)pyridin-3-yl)-1-(2,2,2-trifluoroethyl)-1H-indazol-3-yl)(methylsulfonyl)carbamoyl)cyclohexane-1,3-dicarboxylic acid] | 1/1 μM | 1/1 μM |  |  |  | 253 µg/mL (≈ 217 µM) | 38 µg/mL (≈ 32.6 µM)
CC(C)(C#Cc1ccc(-c2ccc(Cl)c3c(N(C(=O)[C@@H]4C[C@@H]4COP(=O)(O)O)S(C)(=O)=O)nn(CC(F)(F)F)c23)c([C@H](Cc2cc(F)cc(F)c2)NC(=O)Cn2nc(C(F)(F)F)c3c2C(F)(F)[C@@H]2C[C@H]32)n1)S(C)(=O)=O [Compound 11] | 1 μM | 61 μM |  |  |  | 401 µg/mL (≈ 350 µM) | 355 µg/mL (≈ 310 µM)
